We go through 31 compounds from patent publication US8614206B2 (Genentech, Inc., priority 2011, dated 2013).

This assay deals with PIM1 (Homo sapiens (Human), UniProt P11309). The assay is described as follows: Pim kinase inhibition, PIM1 LC3K (Example 901). Type of assay: biochemical.
PIM1, sequence (P11309 whole entry): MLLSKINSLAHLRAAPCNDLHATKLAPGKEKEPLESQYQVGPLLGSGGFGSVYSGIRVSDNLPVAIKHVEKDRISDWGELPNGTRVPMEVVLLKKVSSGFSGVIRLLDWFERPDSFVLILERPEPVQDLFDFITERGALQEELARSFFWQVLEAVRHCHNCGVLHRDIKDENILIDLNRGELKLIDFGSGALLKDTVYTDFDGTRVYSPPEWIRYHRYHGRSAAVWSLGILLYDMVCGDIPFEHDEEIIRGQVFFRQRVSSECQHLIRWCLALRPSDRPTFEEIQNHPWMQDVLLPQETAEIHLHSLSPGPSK
Text: Determination of the Pim kinase activity of a Formula I compound is possible by a number of direct and indirect detection methods.
Consider `Cn1ncc(NC(=O)c2nc(-c3c(F)cccc3F)sc2N)c1N1CCC(N)CC(C)(F)C1` (stereo not shown) [Example 256, 5-Amino-2-(2,6-difluoro-phenyl)-thiazole-4-carboxylic acid [5-(5-amino-3-fluoro-3-methyl-azepan-1-yl)-1-methyl-1H-pyrazol-4-yl]-amide], for which the Ki is 0.009 nM.
Take `Cc1ccc(F)c(-c2nc(C(=O)Nc3cnn(C)c3N3CC[C@@H](N)[C@@H](F)CC3)c(N)s2)c1` [Example 265, 5-amino-N-(5-((4R,5S)-4-amino-5-fluoroazepan-1-yl)-1-methyl-1H-pyrazol-4-yl)-2-(2-fluoro-5-methylphenyl)thiazole-4-carboxamide]: the inhibition constant (Ki) is 0.038 nM.
`Cn1ncc(NC(=O)c2nc(-c3cc(F)ccc3F)sc2N)c1N1CC[C@@H](F)[C@@H](N)CC1` [Example 266, 5-amino-N-(5-((4S,5R)-4-amino-5-fluoroazepan-1-yl)-1-methyl-1H-pyrazol-4-yl)-2-(2,5-difluorophenyl)thiazole-4-carboxamide]: the affinity, expressed as Ki, was 0.253 nM. This Ki lies about 6.7-fold higher than the previous one.
Take `Cn1ncc(NC(=O)c2nc(-c3ncccc3F)sc2N)c1N1CC[C@@H](N)[C@H](F)CC1` [Example 268, 5-amino-N-(5-((4R,5R)-4-amino-5-fluoroazepan-1-yl)-1-methyl-1H-pyrazol-4-yl)-2-(3-fluoropyridin-2-yl)thiazole-4-carboxamide]: the affinity corresponds to a Ki of 0.186 nM.
Compound `Cn1ncc(NC(=O)c2nc(-c3ncccc3F)sc2N)c1N1CC[C@H](N)[C@@H](F)CC1` [Example 269, 5-amino-N-(5-((4S,5S)-4-amino-5-fluoroazepan-1-yl)-1-methyl-1H-pyrazol-4-yl)-2-(3-fluoropyridin-2-yl)thiazole-4-carboxamide] yielded an inhibitory constant (Ki) of 0.091 nM. Against the preceding compound, the Ki is about 2-fold lower.
`Cn1ncc(NC(=O)c2nc(-c3cc(F)ccc3F)sc2N)c1N1CC[C@@H](N)[C@@H](F)CC1` [Example 271, 5-amino-N-(5-((4R,5S)-4-amino-5-fluoroazepan-1-yl)-1-methyl-1H-pyrazol-4-yl)-2-(2,5-difluorophenyl)thiazole-4-carboxamide] registered a Ki of 0.058 nM.
On to `Cc1ccc(F)c(-c2nc(C(=O)Nc3cnn(C)c3N3CC[C@@H](F)[C@@H](N)CC3)c(N)s2)c1` [Example 272, 5-amino-N-(5-((4S,5R)-4-amino-5-fluoroazepan-1-yl)-1-methyl-1H-pyrazol-4-yl)-2-(2-fluoro-5-methylphenyl)thiazole-4-carboxamide], for which the inhibitory constant (Ki) was determined as 0.147 nM.
Turning to `Nc1sc(-c2c(F)cccc2F)nc1C(=O)Nc1cnn(CC(F)F)c1N1CC[C@@H](N)CC(F)(F)C1` [Example 281], the inhibition constant (Ki) stood at 0.02 nM.
Then `Cn1ncc(NC(=O)c2nc(-c3cc(F)ccc3F)sc2N)c1N1CC[C@H](N)CC(F)(F)C1` [Example 282, (S)-5-amino-N-(5-(5-amino-3,3-difluoroazepan-1-yl)-1-methyl-1H-pyrazol-4-yl)-2-(2,5-difluorophenyl)thiazole-4-carboxamide], with 0.004 nM; and `Cn1ncc(NC(=O)c2nc(-c3cc(F)ccc3F)sc2N)c1N1CC[C@@H](N)CC(F)(F)C1` [Example 283, (R)-5-amino-N-(5-(5-amino-3,3-difluoroazepan-1-yl)-1-methyl-1H-pyrazol-4-yl)-2-(2,5-difluorophenyl)thiazole-4-carboxamide], with 0.008 nM.
For the compound `Cc1ccc(F)c(-c2nc(C(=O)Nc3cnn(C)c3N3CC[C@H](N)CC(F)(F)C3)c(N)s2)c1` [Example 284, (S)-5-amino-N-(5-(5-amino-3,3-difluoroazepan-1-yl)-1-methyl-1H-pyrazol-4-yl)-2-(2-fluoro-5-methylphenyl)thiazole-4-carboxamide], the Ki amounted to 0.015 nM.
Then `Cc1ccc(F)c(-c2nc(C(=O)Nc3cnn(C)c3N3CC[C@@H](N)CC(F)(F)C3)c(N)s2)c1` [Example 285], with 0.018 nM; and `C[C@H]1CN(c2c(NC(=O)c3nc(-c4c(F)cccc4F)sc3N)cnn2CC(F)(F)F)CCN1` [Example 301, (S)-5-Amino-2-(2,6-difluorophenyl)-N-(5-(3-methylpiperazin-1-yl)-1-(2,2,2-trifluoroethyl)-1H-pyrazol-4-yl)thiazole-4-carboxamide], with 2.1 nM; and `Nc1sc(-c2c(F)cccc2F)nc1C(=O)Nc1cnn(CC(F)(F)F)c1N1CCCCC(N)C1` (stereo not shown) [Example 302, 5-Amino-2-(2,6-difluoro-phenyl)-thiazole-4-carboxylic acid [5-(3-amino-azepan-1-yl)-1-(2,2,2-trifluoro-ethyl)-1H-pyrazol-4-yl]-amide], with 0.175 nM.
Turning to `Nc1sc(-c2c(F)cccc2F)nc1C(=O)Nc1cnn(CC(F)(F)F)c1N1CCCCC(N)C1` (stereo not shown) [Example 303, 5-Amino-2-(2,6-difluoro-phenyl)-thiazole-4-carboxylic acid [5-(3-amino-azepan-1-yl)-1-(2,2,2-trifluoro-ethyl)-1H-pyrazol-4-yl]-amide], the affinity, expressed as Ki, was 0.208 nM. The Ki values of the last two compounds are within 1.5-fold of each other.
In turn, `Cc1ccc(F)c(-c2nc(C(=O)Nc3cnn(C4CC4)c3N3CCC(N)C(F)CC3)c(N)s2)c1` (stereo not shown) [Example 330, 5-amino-N-[5-(4-amino-5-fluoro-azepan-1-yl)-1-cyclopropyl-pyrazol-4-yl]-2-(2-fluoro-5-methyl-phenyl)thiazole-4-carboxamide] gave a Ki of 0.087 nM. This Ki lies about 2.4-fold lower than the previous one.
`Cn1ncc(NC(=O)c2nc(-c3c(F)cccc3F)sc2N)c1N1CCC[C@H](NCC2(C)COC2)CC1` [Example 334, 5-amino-2-(2,6-difluorophenyl)-N-[1-methyl-5-[(4S)-4-[(3-methyloxetan-3-yl)methylamino]azepan-1-yl]pyrazol-4-yl]thiazole-4-carboxamide]: the inhibitory constant (Ki) is 0.295 nM.
For the compound `Cn1ncc(NC(=O)c2nc(-c3c(F)cccc3F)sc2N)c1N1CCC[C@H](N(CCO)CCO)CC1` [Example 336, 5-amino-N-[5-[(4S)-4-[bis(2-hydroxyethyl)amino]azepan-1-yl]-1-methyl-pyrazol-4-yl]-2-(2,6-difluorophenyl)thiazole-4-carboxamide], the Ki was 0.199 nM.
Consider `Nc1sc(-c2cc(F)ccc2F)nc1C(=O)Nc1cnn(C2CC2)c1N1CCC(N)C(F)CC1` (stereo not shown) [Example 338, 5-amino-N-[5-(4-amino-5-fluoro-azepan-1-yl)-1-cyclopropyl-pyrazol-4-yl]-2-(2,5-difluorophenyl)thiazole-4-carboxamide], for which the affinity corresponds to a Ki of 0.159 nM.
The compound `Nc1sc(-c2cc(F)ccc2F)nc1C(=O)Nc1cnn(C2CC2)c1N1CCC(N)C(F)CC1` (stereo not shown) [Example 339, 5-amino-N-[5-(4-amino-5-fluoro-azepan-1-yl)-1-cyclopropyl-pyrazol-4-yl]-2-(2,5-difluorophenyl)thiazole-4-carboxamide] had a Ki of 0.226 nM.
In the case of `Cn1ncc(NC(=O)c2nc(-c3c(F)cccc3F)sc2N)c1N1CCC[C@H](NCC2COC2)CC1` [Example 342, 5-amino-2-(2,6-difluorophenyl)-N-[1-methyl-5-[(4S)-4-(oxetan-3-ylmethylamino)azepan-1-yl]pyrazol-4-yl]thiazole-4-carboxamide], the Ki was determined as 0.075 nM.
`Cn1ncc(NC(=O)c2nc(-c3c(F)cccc3F)sc2N)c1N1CCC[C@H](N(CC2COC2)CC2COC2)CC1` [Example 343, 5-amino-N-[5-[(4S)-4-[bis(oxetan-3-ylmethyl)amino]azepan-1-yl]-1-methyl-pyrazol-4-yl]-2-(2,6-difluorophenyl)thiazole-4-carboxamide] displayed an inhibition constant (Ki) of 0.962 nM. Compared with the last compound, the Ki is about 13-fold higher.
In turn, `Cn1ncc(NC(=O)c2nc(-c3c(F)cccc3F)sc2N)c1N1CCC2(CNC2)C1` [Example 359, 5-amino-N-[5-(2,6-diazaspiro[3.4]octan-6-yl)-1-methyl-pyrazol-4-yl]-2-(2,6-difluorophenyl)thiazole-4-carboxamide] displayed an inhibitory constant (Ki) of 0.783 nM.
`Cn1ncc(NC(=O)c2nc(-c3c(F)cccc3F)sc2N)c1N1CCC2(CCNC2=O)CC1` [Example 360, 5-amino-2-(2,6-difluorophenyl)-N-[1-methyl-5-(1-oxo-2,8-diazaspiro[4.5]decan-8-yl)pyrazol-4-yl]thiazole-4-carboxamide] gave a Ki of 0.391 nM.
`Cn1ncc(NC(=O)c2nc(-c3c(F)cccc3F)sc2N)c1N1CCCN(C2CNC2)CC1` [Example 362, 5-amino-N-[5-[4-(azetidin-3-yl)-1,4-diazepan-1-yl]-1-methyl-pyrazol-4-yl]-2-(2,6-difluorophenyl)thiazole-4-carboxamide] gave a Ki of 0.25 nM. This Ki lies about 1.6-fold lower than the previous one.
Turning to `CCn1ncc(NC(=O)c2nc(-c3c(F)cccc3F)sc2N)c1N1CC[C@H](OC)[C@@H](N)CC1` [Example 364, 5-amino-N-(5-((4S,5S)-4-amino-5-methoxyazepan-1-yl)-1-ethyl-1H-pyrazol-4-yl)-2-(2,6-difluorophenyl)thiazole-4-carboxamide], the Ki stood at 0.247 nM. This Ki and that of the compound before are within 1.5-fold of each other.
As for `CCn1ncc(NC(=O)c2nc(-c3c(F)cccc3F)sc2N)c1N1CC[C@H](N)[C@H](OC)CC1` [Example 376, 5-amino-N-(5-((4S,5R)-4-amino-5-methoxyazepan-1-yl)-1-ethyl-1H-pyrazol-4-yl)-2-(2,6-difluorophenyl)thiazole-4-carboxamide], the Ki was determined as 0.223 nM.
Compound `Cn1ncc(NC(=O)c2nc(-c3c(F)cccc3F)sc2N)c1N1CCNCC(C#N)C1` (stereo not shown) [Example 382, 5-amino-N-[5-(6-cyano-1,4-diazepan-1-yl)-1-methyl-pyrazol-4-yl]-2-(2,6-difluorophenyl)thiazole-4-carboxamide] returned an inhibition constant (Ki) of 2.81 nM. This Ki is about 13-fold higher than that of the compound before.
`CC(=O)NC1(C)CCCN(c2c(NC(=O)c3nc(-c4ncccc4F)sc3N)cnn2C)CC1` (stereo not shown) [Example 384, N-[5-(4-acetamido-4-methyl-azepan-1-yl)-1-methyl-pyrazol-4-yl]-5-amino-2-(3-fluoro-2-pyridyl)thiazole-4-carboxamide] gave a Ki of 0.613 nM.
For the compound `CO[C@@H]1CCN(c2c(NC(=O)c3nc(-c4c(F)cccc4F)sc3N)cnn2C2CC2)CC[C@@H]1N` [Example 386, 5-amino-N-(5-((4S,5R)-4-amino-5-methoxyazepan-1-yl)-1-cyclopropyl-1H-pyrazol-4-yl)-2-(2,6-difluorophenyl)thiazole-4-carboxamide], the Ki is 0.103 nM.
Consider `Cn1ncc(NC(=O)c2nc(-c3cccc(O)n3)sc2N)c1N1CCC[C@H](N)CC1` [Example 393, 5-amino-N-[5-[(4S)-4-aminoazepan-1-yl]-1-methyl-pyrazol-4-yl]-2-(6-hydroxy-2-pyridyl)thiazole-4-carboxamide], for which the Ki was determined as 14 nM.

The term Ki denotes a measure of affinity in units of concentration, obtained from inhibition or displacement. High values mean a looser hold on the target, low ones a stronger hold on the target.
